Converted amounts (≈) assume the structure as drawn. Non-standard residues stand in square brackets, D forms with d. Residues, ends and D or L forms follow the SMILES beside them. *: point of attachment. Arg(Me2a) = CN(C)C(=N)NCCC[C@H](N)C(=O)O; X1 = F[B-]1(F)n2c(ccc2*)C=C2C=CC=[N+]21
Tests used:
Escherichia coli [1] = assay: Antimicrobial activity against Escherichia coli ATCC 25922 incubated for 18 hrs at 37 degC by broth microdilution method; format: functional; conditions: ATCC 25922, 18 h
Escherichia coli [2] = assay: Antimicrobial activity against Escherichia coli HB101 incubated for 18 hrs at 37 degC by broth microdilution method; format: functional; conditions: HB101, 18 h
Escherichia coli [3] = assay: Antimicrobial activity against O-antigen lacking LPS containing wild type Escherichia coli BW25113 incubated for 18 hrs at 37 degC by broth microdilution method; format: functional; conditions: BW25113, 18 h
Escherichia coli [4] = assay: Antimicrobial activity against delta-waaG deletion mutant containing Escherichia coli BW25113 incubated for 18 hrs at 37 degC by broth microdilution method; format: functional; conditions: BW25113, 18 h
Escherichia coli [5] = assay: Antimicrobial activity against delta-sbmA deletion mutant containing Escherichia coli BW25113 incubated for 18 hrs at 37 degC by broth microdilution method; format: functional; conditions: BW25113, 18 h
Escherichia coli [6] = assay: Drug uptake in Escherichia coli ATCC 25922 assessed as mean fluorescence intensity using BODIPY-labeled compound at 0.25 to 4 uM incubated for 10 mins by flow cytometry; format: ADME, organism-based; conditions: in vivo
Escherichia coli [7] = assay: Drug uptake in Escherichia coli ATCC 25922 assessed as mean fluorescence intensity using BODIPY-labeled compound at 0.25 to 4 uM incubated for 10 mins in presence of trypan blue quencher by flow cytometry; format: ADME, organism-based; conditions: in vivo
Escherichia coli [8] = assay: Drug uptake in Escherichia coli ATCC 25922 assessed as mean fluorescence intensity using BODIPY-labeled compound at 0.25 to 4 uM incubated for 60 mins by flow cytometry; format: ADME, organism-based; conditions: in vivo, 1 h
Escherichia coli [9] = assay: Drug uptake in Escherichia coli ATCC 25922 assessed as mean fluorescence intensity using BODIPY-labeled compound at 0.25 to 4 uM incubated for 60 mins in presence of trypan blue quencher by flow cytometry; format: ADME, organism-based; conditions: in vivo, 1 h

H-RRIRPRPPRLPRPRP-OH
MIC (Escherichia coli [1]): 32 µM
MIC (Escherichia coli [2]): 16 µM

H-RRIRPRPPRLPRPRPR-OH
MIC (Escherichia coli [1]): 0.5 µM
MIC (Escherichia coli [2]): 0.5 µM

CC[C@H](C)[C@H](NC(=O)[C@@H](CCCNC(=N)N)NC(=O)[C@H](N)CCCNC(=N)N)C(=O)N[C@@H](CCCNC(=N)N)C(=O)N1CCC[C@H]1C(=O)N[C@@H](CCCNC(=N)N)C(=O)N1CCC[C@H]1C(=O)N1CCC[C@H]1C(=O)N[C@@H](CCCNC(=N)N)C(=O)N[C@@H](CC(C)C)C(=O)N1CCC[C@H]1C(=O)N[C@@H](CCCNC(=N)N)C(=O)N1CCC[C@H]1C(=O)N[C@@H](CCCNC(=N)N)C(=O)N1CCC[C@H]1C(=O)N[C@@H](CCCNC(=N)N)C(=O)N1CCC[C@H]1C(=O)N[C@@H](CC(C)C)C(=O)N1CCC[C@H]1C(=O)N[C@@H](Cc1ccc(O)cc1)C(=O)N1CCC[C@H]1C(=O)N[C@@H](CCCNC(=N)N)C(=O)N1CCC[C@H]1C(=O)O
MIC (Escherichia coli [1]): 4 µM (≈ 11.6 µg/mL)
MIC (Escherichia coli [3]): 4 µM (≈ 11.6 µg/mL)
MIC (Escherichia coli [4]): 2 µM (≈ 5.8 µg/mL)
MIC (Escherichia coli [5]): 16 µM (≈ 46.4 µg/mL)

CC[C@H](C)[C@H](NC(=O)[C@H](CCCNC(=N)N)NC(=O)[C@@H](N)CCCNC(=N)N)C(=O)N[C@@H](CCCNC(=N)N)C(=O)N1CCC[C@H]1C(=O)N[C@@H](CCCNC(=N)N)C(=O)N1CCC[C@H]1C(=O)N1CCC[C@H]1C(=O)N[C@@H](CCCNC(=N)N)C(=O)N[C@@H](CC(C)C)C(=O)N1CCC[C@H]1C(=O)N[C@@H](CCCNC(=N)N)C(=O)N1CCC[C@H]1C(=O)N[C@@H](CCCNC(=N)N)C(=O)N1CCC[C@H]1C(=O)N[C@@H](CSc1ccc2n1[B-](F)(F)[N+]1=CC=CC1=C2)C(=O)O (H-RRIRPRPPRLPRPRPC(X1)-OH)
Drug uptake (Escherichia coli [6]): Not Active
Drug uptake (Escherichia coli [7]): Not Active
Drug uptake (Escherichia coli [8]): Not Active
Drug uptake (Escherichia coli [9]): Not Active
MIC (Escherichia coli [1]): 1 µM (≈ 2.21 µg/mL)
MIC (Escherichia coli [2]): 1 µM (≈ 2.21 µg/mL)

H-RRIRPRPPRLPRP-OH
MIC (Escherichia coli [1]): > 128 µM
MIC (Escherichia coli [2]): 64 µM

H-RRIRPRPPRLPRPRPC-OH
MIC (Escherichia coli [1]): 8 µM
MIC (Escherichia coli [2]): 8 µM

CC[C@H](C)[C@H](NC(=O)[C@H](CCCNC(=N)N(C)C)NC(=O)[C@@H](N)CCCNC(=N)N)C(=O)N[C@@H](CCCNC(=N)N)C(=O)N1CCC[C@H]1C(=O)N[C@@H](CCCNC(=N)N)C(=O)N1CCC[C@H]1C(=O)N1CCC[C@H]1C(=O)N[C@@H](CCCNC(=N)N)C(=O)N[C@@H](CC(C)C)C(=O)N1CCC[C@H]1C(=O)N[C@@H](CCCNC(=N)N)C(=O)N1CCC[C@H]1C(=O)N[C@@H](CCCNC(=N)N)C(=O)N1CCC[C@H]1C(=O)N[C@@H](CCCNC(=N)N)C(=O)N1CCC[C@H]1C(=O)N[C@@H](CC(C)C)C(=O)N1CCC[C@H]1C(=O)N[C@@H](Cc1ccc(O)cc1)C(=O)N1CCC[C@H]1C(=O)N[C@@H](CCCNC(=N)N)C(=O)N1CCC[C@H]1C(=O)O (H-R[Arg(Me2a)]IRPRPPRLPRPRPRPLPYPRP-OH)
MIC (Escherichia coli [1]): 4 µM (≈ 11.7 µg/mL)
MIC (Escherichia coli [3]): 4 µM (≈ 11.7 µg/mL)
MIC (Escherichia coli [4]): 1 µM (≈ 2.93 µg/mL)
MIC (Escherichia coli [5]): 8 µM (≈ 23.4 µg/mL)

CC[C@H](C)[C@H](NC(=O)[C@H](CCCNC(=N)N)NC(=O)[C@@H](N)CCCNC(=N)N)C(=O)N[C@@H](CCCNC(=N)N)C(=O)N1CCC[C@H]1C(=O)N[C@@H](CCCNC(=N)N)C(=O)N1CCC[C@H]1C(=O)N1CCC[C@H]1C(=O)N[C@@H](CCCNC(=N)N)C(=O)N[C@@H](CC(C)C)C(=O)N1CCC[C@H]1C(=O)N[C@@H](CCCNC(=N)N)C(=O)N1CCC[C@H]1C(=O)N[C@@H](CCCNC(=N)N)C(=O)N1CCC[C@H]1C(=O)N[C@@H](CCCNC(=N)N)C(=O)N[C@@H](CSc1ccc2n1[B-](F)(F)[N+]1=CC=CC1=C2)C(=O)O (H-RRIRPRPPRLPRPRPRC(X1)-OH)
MIC (Escherichia coli [1]): 0.5 µM (≈ 1.18 µg/mL)
MIC (Escherichia coli [2]): 0.5 µM (≈ 1.18 µg/mL)

H-RRIRPRPPRLPRPC-OH
MIC (Escherichia coli [1]): > 128 µM
MIC (Escherichia coli [2]): 128 µM
